Source: US20230203060A1 (GENFLEET THERAPEUTICS (SHANGHAI) INC., priority 2020, published 2023)
Read-outs that look alike come from different tables or passages of the source.

Assays:
[1] = system: KRAS G12C mutant MIA PaCa-2 cells; experiment: Cell proliferation inhibition experiment, 3D spheroid, CellTiter-Glo, MIA PaCa-2; type: cell-based, human; conditions: 3D cell model in 384-well spheroid plate, 5 days, CellTiter-Glo, read-out: MIA-PaCa2 IC50
Outline: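 Luminescent ATP read-out (CellTiter-Glo) after 5-day compound treatment of spheroids formed overnight from 200 MIA PaCa-2 cells/well; compounds in 3.16-fold series, 0.1% DMSO final. IC50 derived by four-parameter fit of percent inhibition, normalized to DMSO control and medium blank.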

KRAS G12C = biological target: T1, KRAS G12C (Homo sapiens, UniProt P01116, G12C); experiment: KRAS G12C NEA-HTRF experiment (SOS1-catalyzed displacement of GDP by GTP); type: biochemical
T1 construct: purchased Reactionbiology
T1 sequence (P01116 1-188 isoform P01116-2 G12C): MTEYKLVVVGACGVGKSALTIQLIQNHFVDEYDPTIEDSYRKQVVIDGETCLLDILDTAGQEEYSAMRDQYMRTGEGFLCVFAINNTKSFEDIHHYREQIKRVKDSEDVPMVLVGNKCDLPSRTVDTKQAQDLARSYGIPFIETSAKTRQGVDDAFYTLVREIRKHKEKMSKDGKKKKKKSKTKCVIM
Description: Raw materials and instruments: KRAS G12C (his-tag) purchased from Reactionbiology; batch number 3496; SOS1 purchased from Reactionbiology; batch number: 3501; GTP purchased from Sigma; article number: G8877; batch number: SLBV1450; Tris-HC1 purchased from Sigma; EDTA purchased from absin; article number: abs42017668; batch number: JE20; NaCl purchased from Sigma; article number: 55886; batch number: SLBW4193; MgCl2 purchased from Shyuanye; article number: R21455; batch number: L07S9G69806; HEPES purchased from Life Technologies; article number: 15630-080; batch number: 2037042; DTT purchased from Thermo Fisher; article number: R0862; batch number: 00608918; Triton X-100 purchased from Sigma; article number: T8787-100 ML; batch number: SLBW7103; DY647-labeled GDP purchased from Jena Bioscience; article number: NU-840-647P1; batch number: BM019-045; Anti-6H1S-Tb purchased from Cisbio; article number: 61H12TLA; batch number: 13A; Bradford Assay Kit purchased from Thermo Fisher; article number: 23246; batch number: UG287474; white opaque 96-well plate purchased from Cisbio; article number: 66PL96025; batch number: N°06; NAP-5 column purchased from GE Healthcare; article number: 17085301; batch number: 16995164; mircoplate reader purchased from PerkinElmer; model: Envision MLD2105-0020; equipment number 1050369. The effect of compounds on SOS1-catalyzed displacement of GDP by GTP on KRAS protein was examined using a homogeneous time-resolved fluorescence (HTRF) method. 30 μM 6×his-tagged KRAS G12C recombinant protein was incubated with 80 μM fluorescent dye DY647-labeled GDP in labeling buffer (1 mM DTT, 7.5 mM EDTA, 25 mM Tris-HCl, 45 mM NaCl) at 20° C. in the dark for 2 hours, purified using NAP-5 column, and then protein quantification was performed with Bradford Assay Kit after purification to determine the concentration of KRAS […] 3.16-fold gradient concentration stock solution of 1000× compound was prepared with DMSO, and diluted 250-fold to 4× compound stock solution with reaction buffer (40 mM HEPES, 10 mM MgCl2, 1 mM DTT, 0.002% Triton X-100). KRAS G12C-GDP/Tb working solution (40 nM KRAS […] Tb) and SOS1/GTP working solution (0.2 μM SOS1, 200 μM GTP) were prepared using the reaction buffer. A white opaque 96-well plate was taken, and 5 μL of 4× compound stock solution and 10 μL of KRAS G12C-GDP/Tb working solution were added to each well. 5 μL of reaction buffer instead of 4x compound stock solution was used in the control well. After incubation in the dark for 15 minutes at 20° C., 5μL of SOS1/GTP working solution was added thereto, and the fluorescence value (excitation wavelength: 320 nm, emission wavelength: 615 nm and 665 nm) was read after incubating at 20° C. in the dark for 2 hours. Another T0 group was set up with 10 μL reaction buffer+10 μL KRAS G12C-GDP/Tb working solution, and the fluorescence value was read directly by the microplate reader. The fluorescence signal ratio RLU=(665 nm signal/615 nm signal)×10^4; and the compound inhibition rate IR (%)=(RLUcompound-RLUcontrol)/(RLUT0-RLUcontrol)×100% were calculated. The IC50 value was calculated by fitting the gradient dilution concentration of compound and the corresponding inhibition rate with the four-parameter method. The NEA activity of the compounds prepared in the above embodiments of the present disclosure was 0.0001 μM to 1 μM; the inhibitory activity of some compounds on KRAS G12C mutant MIA PaCa-2 cells was 0.001 μM to 0.5 μM or 0.001 μM to 0.1 μM.

[2] = Homo sapiens, MIA PaCa-2, 120 h

| Compound | IC50 [1, 2] | IC50 (KRAS G12C) | IC50 [1] |
| --- | --- | --- | --- |
| C=CC(=O)N1CCN2C(=O)c3c(N4C[C@@](C)(O)CC4(C)C)nc(-c4c(O)cccc4F)c(Cl)c3OC[C@H]2C1 (single isomer, unassigned) [Z243-1] | 1.5 nM | 7 nM |  |
| C=CC(=O)N1CCN2C(=O)c3c(N4CCN(C)C(C)C4C)nc(-c4c(O)cccc4F)c(Cl)c3OC[C@H]2C1 (stereo partly drawn) [Z369, (6aR)-8-acryloyl-4-chloro-3-(2-fluoro-6-hydroxyphenyl)-1-(2,3,4-trimethylpiperazin-1-yl)-6,6a,7,8,9,10-hexahydro-12H-pyrazino[2,1-c]pyrido[3,4-f][1,4]oxazepin-12-one] |  | 68.6 nM | 6 nM |
| C=CC(=O)N1CCN2C(=O)c3c(N4C[C@H](N(C)CCOC)CC4(C)C)nc(-c4c(O)cccc4F)c(Cl)c3OC[C@H]2C1 (single isomer, unassigned) [Z296-2] | 8 nM | 39 nM |  |
| C=CC(=O)N1CCN2C(=O)c3c(N4C[C@H](O)CC4(C)C)nc(-c4c(O)ccc(Cl)c4F)c(F)c3OC[C@H]2C1 (single isomer, unassigned) [Z340-2] | 74 nM | 98 nM |  |
| C=CC(=O)N1CCN2C(=O)c3c(N4C[C@@H](N(C)C)CC4(C)C)nc(-c4c(O)cccc4F)c(Cl)c3OC[C@H]2C1 (single isomer, unassigned) [Z324-1] | 2.4 nM | 16 nM |  |
| C=CC(=O)N1CCN2C(=O)c3c(N4C[C@@H](OC)C[C@@H]4C)nc(-c4c(O)cccc4F)c(F)c3OC[C@H]2C1 [Z359-1, (6aR)-8-actyloyl-4-fluoro-3-(2-fluoro-6-hydroxyphenyl)-1-((2S,4S)-4-methoxy-2-methylpyrrolidin-1-yl)-6,6a,7,8,9,10-hexahydro-12H-pyrazino[2,1-c]pyrido[3,4-f][1,4]oxazepin-12-one] | 17.6 nM | 83.8 nM |  |
| C=CC(=O)N1CCN2C(=O)c3c(N4CCN(CCOC)C[C@@H]4C)nc(-c4c(O)cccc4F)c(Cl)c3OC[C@H]2C1 [Z257a, (6aR)-8-acryloyl-4-chloro-3-(2-fluoro-6-hydroxyphenyl)-1-((S)-4-(2-methoxyethyl)-2-methylpiperazin-1-yl)-6,6a,7,8,9,10-hexahydro-12H-pyrazino[2,1-c]pyrido[3,4-f][1,4]oxazepin-12-one] | 9 nM | 76 nM |  |
| C=CC(=O)N1CCN2C(=O)c3c(N4C[C@H](N5CCOCC5)CC4(C)C)nc(-c4c(O)cccc4F)c(Cl)c3OC[C@H]2C1 (single isomer, unassigned) [Z297-1] | 3 nM | 19 nM |  |
| C=CC(=O)N1CCN2C(=O)c3c(N4C[C@H](OC)CC4(C)C)nc(-c4c(O)cccc4F)c(Cl)c3OC[C@H]2C1 (single isomer, unassigned) [Z244-2] | 1 nM | 5 nM |  |
| C=CC(=O)N1CCN2C(=O)c3c(N4C[C@H](O)[C@H]4C)nc(-c4c(O)cccc4F)c(Cl)c3OC[C@H]2C1 (single isomer, unassigned) [Z102-4] |  | 103 nM |  |
| C=CC(=O)N1CCN2C(=O)c3c(N4CC[C@@H]5C[C@@H]54)nc(-c4c(O)cccc4F)c(Cl)c3OC[C@H]2C1 (single isomer, unassigned) [Z39-2] | 13 nM | 66 nM |  |
| C=CC(=O)N1CCN2C(=O)c3c(N4CCOCC4)nc(-c4nc(N)cc(C)c4C(F)(F)F)c(Cl)c3OC[C@H]2C1 [Z314] | 9.9 nM | 43 nM |  |
| C=CC(=O)N1CCN2C(=O)c3c(N4CCN(C)[C@H](C)[C@@H]4C)nc(-c4c(O)cccc4F)c(Cl)c3OC[C@H]2C1 (single isomer, unassigned) [Z308a-1] | 7.8 nM | 58 nM |  |
| C=CC(=O)N1CCN2C(=O)c3c(N4CC[C@@H](OC)C4(C)C)nc(-c4c(O)cccc4F)c(F)c3OC[C@H]2C1 (single isomer, unassigned) [Z327-1] | 7.1 nM | 26 nM |  |
| C=CC(=O)N1CCN2C(=O)c3c(N4CC(N5CCOCC5)CC4(C)C)nc(-c4c(O)cccc4F)c(Cl)c3OC[C@H]2C1 (stereo partly drawn) [Z344, (6aR)-8-acryloyl-4-chloro-1-((2,2-dimethyl-4-morpholinopyrrolidin-1-yl))-3-(2-fluoro-6-hydroxyphenyl)-6,6a,7,8,9,10-hexahydro-12H-pyrazino[2,1-c]pyrido[3,4-f][1,4]oxazepin-12-one] | 3 nM | 10 nM |  |
| C=CC(=O)N1CCN2C(=O)c3c(N4CC[C@H](N(C)C)C4(C)C)nc(-c4c(O)cccc4F)c(Cl)c3OC[C@H]2C1 (single isomer, unassigned) [Z360-2] | 6 nM | 36.9 nM |  |
| C=CC(=O)N1CCN2C(=O)c3c(N4CCN(CCOC)C(C)(C)C4)nc(-c4c(O)cccc4F)c(Cl)c3OC[C@H]2C1 [Z321, (6aR)-8-acryloyl-4-chloro-3-(2-fluoro-6-hydroxyphenyl)-1-(4-(2-methoxyethyl)-3,3-dimethylpiperazin-1-yl)-6,6a,7,8,9,10-hexahydro-12H-pyrazino[2,1-c]pyrido[3,4-f][1,4]oxazepin-12-one] | 7 nM | 78 nM |  |
| C=CC(=O)N1CCN2C(=O)c3c(N4CCN(C5CC5)C[C@@H]4C)nc(-c4c(O)cccc4F)c(Cl)c3OC[C@H]2C1 [Z312-1, (6aR)-8-acryloyl-4-chloro-1-((S)-4-cyclopropyl-2-methylpiperazin-1-yl)-3-(2-fluoro-6-hydroxyphenyl)-6,6a,7,8,9,10-hexahydro-12H-pyrazino[2,1-c]pyrido[3,4-f][1,4]oxazepin-12-one] |  | 134 nM |  |
| C=CC(=O)N1CCN2C(=O)c3c(N4CC(CO)CC4(C)C)nc(-c4c(O)cccc4F)c(Cl)c3OC[C@H]2C1 (stereo partly drawn) [Z240, (6aR)-8-acryloyl-4-chloro-3-(2-fluoro-6-hydroxyphenyl)-1-(4-(hydroxymethyl)-2,2-dimethylpyrrolidin-1-yl)-6,6a,7,8,9,10-hexahydro-12H-pyrazino[2,1-c]pyrido[3,4-f][1,4]oxazepin-12-one] |  | 10 nM |  |
| C=CC(=O)N1CCN2C(=O)c3c(N4C[C@H](N(C)C)C[C@@H]4C)nc(-c4c(O)cccc4F)c(Cl)c3OC[C@H]2C1 [Z237-1, (6aR)-8-acryloyl-4-chloro-1-((2S,4R)-4-(dimethylamino)-2-methylpyrrolidin-1-yl)-3-(2-fluoro-6-hydroxyphenyl)-6,6a,7,8,9,10-hexahydro-12H-pyrazino[2,1-c]pyrido[3,4-f][1,4]oxazepin-12-one] |  | 122 nM |  |
| C=CC(=O)N1CCN2C(=O)c3c(N4CC(O)CC4(C)C)nc(-c4c(O)cccc4F)c(C)c3OC[C@H]2C1 (single isomer, unassigned) [Z336-2] |  | 27 nM |  |
| C=CC(=O)N1CCN2C(=O)c3c(N4CC(=O)N(CC)C[C@@H]4C)nc(-c4c(O)cccc4F)c(Cl)c3OC[C@H]2C1 [Z319-1, (6aR)-8-acryloyl-4-chloro-1-((S)-4-ethyl-2-methyl-5-oxopiperazin-1-yl)-3-(2-fluoro-6-hydroxyphenyl)-6,6a,7,8,9,10-hexahydro-12H-pyrazino[2,1-c]pyrido[3,4-f][1,4]oxazepin-12-one] |  | 9 nM |  |
